Measured values taken from the supplement of paper PMC10307832.

Assays:
Experiment in all cases: relative viability (nuclei count vs DMSO), 5 days (fraction); higher = more cells survive
Seliciclib + Vorinostat = compound: CC[C@H](CO)Nc1nc(NCc2ccccc2)c2ncn(C(C)C)c2n1 [Seliciclib] + O=C(CCCCCCC(=O)Nc1ccccc1)NO [Vorinostat] (partner 1 µM)
Procedure, shortened: (§1)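 Lung cancer cell lines in 1536-well plates were dosed by pin tool the day after seeding, either with one drug alone or with a fixed anchor-drug dose plus five library-drug doses (not always all listed) in √10 steps. After 5 days, cells were fixed and their nuclei stained in one step (final 0.05% Triton X-100, 1% formaldehyde, 1 ug/ml Hoechst), then counted on 4× images. Relative viability is the nuclei count in treated wells divided by that in vehicle wells. Values are medians of duplicate plates.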

Seliciclib + Pictilisib = compound: CC[C@H](CO)Nc1nc(NCc2ccccc2)c2ncn(C(C)C)c2n1 [Seliciclib] + CS(=O)(=O)N1CCN(Cc2cc3nc(-c4cccc5[nH]ncc45)nc(N4CCOCC4)c3s2)CC1 [Pictilisib] (partner 1 µM)
Procedure, shortened: as §1

Seliciclib + Crizotinib = compound: CC[C@H](CO)Nc1nc(NCc2ccccc2)c2ncn(C(C)C)c2n1 [Seliciclib] + C[C@@H](Oc1cc(-c2cnn(C3CCNCC3)c2)cnc1N)c1c(Cl)ccc(F)c1Cl [Crizotinib] (partner 1 µM)
Procedure, shortened: as §1

Seliciclib + Dasatinib = compound: CC[C@H](CO)Nc1nc(NCc2ccccc2)c2ncn(C(C)C)c2n1 [Seliciclib] + Cc1nc(Nc2ncc(C(=O)Nc3c(C)cccc3Cl)s2)cc(N2CCN(CCO)CC2)n1 [Dasatinib] (partner 0.075 µM)
Procedure, shortened: as §1

| Cell Line | relative viability (Seliciclib + Vorinostat; first compound 0.08 µM) | relative viability (Seliciclib + Vorinostat; first compound 0.253 µM) | relative viability (Seliciclib + Vorinostat; first compound 0.8 µM) | relative viability (Seliciclib + Vorinostat; first compound 2.53 µM) | relative viability (Seliciclib + Vorinostat; first compound 8 µM) | relative viability (Seliciclib + Pictilisib; first compound 0.08 µM) | relative viability (Seliciclib + Pictilisib; first compound 0.253 µM) | relative viability (Seliciclib + Pictilisib; first compound 0.8 µM) | relative viability (Seliciclib + Pictilisib; first compound 2.53 µM) | relative viability (Seliciclib + Pictilisib; first compound 8 µM) | relative viability (Seliciclib + Crizotinib; first compound 0.08 µM) | relative viability (Seliciclib + Crizotinib; first compound 0.253 µM) | relative viability (Seliciclib + Crizotinib; first compound 0.8 µM) | relative viability (Seliciclib + Crizotinib; first compound 2.53 µM) | relative viability (Seliciclib + Crizotinib; first compound 8 µM) | relative viability (Seliciclib + Dasatinib; first compound 0.08 µM) | relative viability (Seliciclib + Dasatinib; first compound 0.253 µM) | relative viability (Seliciclib + Dasatinib; first compound 0.8 µM) | relative viability (Seliciclib + Dasatinib; first compound 2.53 µM) | relative viability (Seliciclib + Dasatinib; first compound 8 µM) |
| --- | --- | --- | --- | --- | --- | --- | --- | --- | --- | --- | --- | --- | --- | --- | --- | --- | --- | --- | --- | --- |
| PC-3 [JPC-3] | 0.796 | 0.957 | 0.876 | 0.601 | 0.633 | 0.825 | 0.954 | 0.652 | 0.712 | 0.652 | 0.998 | 0.994 | 0.95 | 0.921 | 0.861 | 1.04 | 1 | 0.982 | 0.936 | 0.946 |
| PC-14 | 0.663 | 0.747 | 0.744 | 0.644 | 0.625 | 0.622 | 0.67 | 0.69 | 0.808 | 0.513 | 0.865 | 0.846 | 0.78 | 0.991 | 0.759 | 0.288 | 0.396 | 0.269 | 0.215 | 0.23 |
| RERF-LC-KJ | 0.698 | 0.641 | 0.661 | 0.55 | 0.439 | 0.431 | 0.511 | 0.633 | 0.59 | 0.443 | 0.803 | 0.787 | 0.785 | 0.85 | 0.786 | 0.908 | 0.841 | 0.902 | 0.627 | 0.617 |
| SK-LU-1 | 0.701 | 0.879 | 0.877 | 0.753 | 0.477 | 0.615 | 0.641 | 0.762 | 0.556 | 0.526 | 0.874 | 0.987 | 1.03 | 0.892 | 0.688 | 0.173 | 0.184 | 0.183 | 0.142 | 0.141 |
| SK-MES-1 | 1.03 | 1.13 | 1.11 | 1.02 | 1.01 | 0.317 | 0.349 | 0.353 | 0.335 | 0.31 | 1 | 1 | 0.891 | 0.96 | 0.914 | 0.395 | 0.504 | 0.386 | 0.231 | 0.344 |
| SW 1573 | 0.943 | 0.687 | 0.708 | 0.632 | 0.346 | 0.494 | 0.516 | 0.428 | 0.516 | 0.474 | 0.823 | 0.759 | 0.77 | 0.847 | 0.642 | 0.608 | 0.525 | 0.524 | 0.35 | 0.301 |
| UMC-11 | 0.432 | 0.336 | 0.353 | 0.281 | 0.194 | 0.919 | 0.891 | 0.854 | 0.8 | 0.7 | 0.654 | 0.558 | 0.672 | 0.712 | 0.404 | 0.517 | 0.52 | 0.491 | 0.507 | 0.458 |
